Data from patent US5493027A, “Anticonvulsive agents and uses thereof” (priority 1993, dated 1996).
Where two headings read alike, the source gives them in different places.

Assays:
[1] = Rotorod test for neurological deficit (TOX) in mice; format: in vivo, male Carworth Farms number-1 mice; conditions: mouse, in vivo, ip
Experimental: (§1) Compounds were screened for anticonvulsant activity in male Carworth Farms number-1 mice. Test solutions of all compounds were prepared in 30% polyethylene glycol 400, and animals were dosed intraperitoneally at either 30 minutes or 4 hours prior to testing. Testing was conducted on four mice at each of three dose levels (30, 100, and 300 mg/kg).
(§2) Animals were also tested for neurological deficit using the rotorod. After treatment, the animal was placed on a 1 inch diameter knurled plastic rod rotating at 6 rpm. Neurologic deficit was defined as the failure of the animal to remain on the rod for 1 minute.
as §1, with “Biological testing--Compounds” for “Compounds”, “number-one” for “number-1”, “min” for “minutes”, “h” for “hours”
(§3) Animals were also tested for neurological deficit using the rotorod. After treatment, the animal was placed on a 1 inch diameter knurled plastic rod rotating at 6 rpm. Neurologic deficit was defined as the failure of the animal to remain on the rod for 1 min.

[2] = system: pentylenetetrazole (Metrazol) induced seizures; assay: Subcutaneous pentylenetetrazole (Metrazol) seizure threshold test (Met) in mice; format: in vivo, male Carworth Farms number-1 mice; conditions: for minimal effective dose: Mus musculus, ip; for Sc MET / Sc MET repeated: protected: mice i.p.; for Sc MET repeated: protected: repeat; for (Maximum Ineffective) Intraperitoneal Dose, Met: Table 7, value in parentheses = maximum ineffective dose
Experimental: as §1
(§4) In the subcutaneous pentylenetetrazole (Metrazol) seizure threshold test(met), 85 mg/kg pentylenetetrazole was administered as a 0.5% solution in the posterior midline. Protection in this test was defined as a failure to observe a single episode of clonic spasms of at least 5 s duration during the 30 minute period following administration of the convulsive agent.
as §1, with “Biological testing--Compounds” for “Compounds”, “number-one” for “number-1”, “min” for “minutes”, “h” for “hours”
as §4, with “test (Met),” for “test(met),”, “min” for “minute”

[3] = system: quinolinic acid induced seizures; conditions: intracerebroventricular, CD-1 mice (Baron et al., 1990); cited from earlier work
[4] = system: seizures induced by electroshock and pentylenetetrazole; assay: Anticonvulsant testing, overall (MES and Met); format: in vivo, male Carworth Farms number-1 mice; conditions: for minimal effective dose: Mus musculus, ip, read-out: dose level with anticonvulsant activity (test not given)
Experimental: as §1
(§5) Maximal electroshock seizures (MES) were elicited with a 60 cycle alternatiing current of 50-mA intensity (five to seven times that necessary to evoke minimal electroshock threshold seizures). Current was delivered via corneal electrodes for 0.2 s. A drop of 0.9% saline was instilled in the eye prior to application of electrodes. Abolition of the hindlimb tonic extension component of the seizure was defined as protection in the MES test.
as §4
as §1, with “Biological testing--Compounds” for “Compounds”, “number-one” for “number-1”, “min” for “minutes”, “h” for “hours”
as §5, with “alternating” for “alternatiing”
as §4, with “test (Met),” for “test(met),”, “min” for “minute”

[5] = target: T1, strychnine-insensitive glycine binding site of the NMDA receptor (Rattus norvegicus, UniProt P35439); assay: Inhibition of [3H]glycine specific binding (strychnine-insensitive) in rat cerebral cortex membranes; conditions: 10 uM compound
T1 construct: Membranes were prepared from rat cerebral cortex; from tissue; host or cells: rat cerebral cortex, "buffy coat" membranes
Experimental: Binding Studies--Inhibition of [^3 H]glycine specific binding was assayed using [^3 H]glycine (43 Ci/mmol) obtained from DuPont-New England Nuclear. […] Membranes were prepared from rat cerebral cortex and assays were conducted in Na-free 50 mM HEPES (Sigma) at pH 7.4. Membranes were incubated in a final volume of 1 ml with 20 nM [^3 H]glycine and a 10 uM concentration of the test compound. Although experience has shown that [^3 H]glycine binding in this preparation is strychnine insensitive, 10 uM strychnine was added to the assay mixtures to eliminate the possibility that any effects studied could be mediated through a strychnine-sensitive process. Incubation was continued for 20 min at 4° C. Non-specific binding was determined in the presence of 1 mM glycine and subtracted. All conditions were tested in triplicate in 3 different assays. Binding was terminated using a Brandel M-24C cell harvester employing rapid filtration through GF/C glass fiber filters pre-soaked in 1% (V/V) polyethylenimine. Filters were washed twice with 5 ml buffer cooled to 4° C. Radioactivity bound to the filters was determined with a Beckman LS-500OTD liquid scintillation counter.

[6] = target: T1, strychnine-insensitive glycine binding site of the NMDA receptor; conditions: literature value of the standard; read-out: IC50 for glycine binding in this test system; cited from earlier work
anticonvulsant activity = conditions: Wong et al., 1986; Singh et al., 1990; cited from earlier work
[7] = system: NMDA-associated glycine site; conditions: Xenopus oocytes injected with rat brain mRNA (Kleckner and Dingledine, 1989); cited from earlier work
quisqualate receptor = conditions: cited from earlier work
[8] = target: strychnine-insensitive glycine binding site; conditions: see also Kemp et al., 1988; cited from earlier work
NMDA receptor = conditions: cited from earlier work
kainate receptor = conditions: cited from earlier work
[9] = Solubility in aqueous solutions and in chloroform and other non-polar solvents; format: physicochemical
[10] = system: maximal electroshock seizures (MES); assay: animal or person; format: in vivo, male Carworth Farms number-1 mice; conditions: for MES: mice i.p.; for minimal effective dose: Mus musculus, ip
Experimental: as §1, §5
as §1, with “Biological testing--Compounds” for “Compounds”, “number-one” for “number-1”, “min” for “minutes”, “h” for “hours”
as §5, with “alternating” for “alternatiing”

[11] = system: neurological deficit (rotorod); assay: Rotorod test for neurological deficit (TOX) in mice; format: in vivo, male Carworth Farms number-1 mice; conditions: mouse, in vivo
Experimental: as §1, §2
as §1, with “Biological testing--Compounds” for “Compounds”, “number-one” for “number-1”, “min” for “minutes”, “h” for “hours”
as §3

[12] = system: inhibitory (strychnine-sensitive) glycine receptors in the spinal cord; conditions: White et al. 1989; Huettner 1989; cited from earlier work
[13] = system: potentiating action of glycine on current elicited by NMDA; conditions: whole cells (Huettner, 1989); cited from earlier work
[14] = Table 7, value without parentheses = effective dose, read-out: Effective Intraperitoneal Dose, Met
[15] = mice, intraperitoneal, read-out: dose active in Met test
[16] = mice, intraperitoneal, read-out: dose active in MES test
[17] = Table 7, value without parentheses = effective dose, read-out: Effective Intraperitoneal Dose, MES

## O=C(O)c1cc(O)c2c(Cl)cc(Cl)cc2n1 [5,7-di-Cl-kyn-2-COOH]
[1]
  NOAEL: 300 mg/kg
[2]; [14]
  minimal effective dose: 300 mg/kg
[2]; [15]
  minimal effective dose: 300 mg/kg
[2]; mice, intraperitoneal
  Met activity: mild Met activity
[3]
  protection against quinolinic acid induced seizures: protect against quinolinic acid induced seizures

## CCCCOC(=O)c1cc2cc(F)ccc2[nH]1 [5-F-indole-2-butyl ester, butyl ester of 5-fluoro-indole-2-carboxylic acid]
[4]; mice, intraperitoneal
  minimal effective dose: 300 mg/kg
[1]
  NOAEL: 300 mg/kg
[5]
  [3H]glycine binding inhibition: binding characteristics were similar to those of the ethyl ester
[2]; [14]
  minimal effective dose: 300 mg/kg
[2]; [15]
  minimal effective dose: 300 mg/kg

## O=C(O)c1cc(O)c2ccc(Cl)cc2n1 [7-Cl-Kyn, 7-chloro-kynurenic acid]
[6]
  IC50: 0.27 to 0.56 µM
Anticonvulsant activity
  anticonvulsant activity (words, literature): demonstrate anticonvulsant activity
[7]
  more potent as antagonist at the NMDA-associated glycine site than at the receptor mediating kainate currents: approximately 40 fold
Quisqualate receptor; see also Kemp et al., 1988
  IC50: 153 µM
[8]
  IC50: 0.56 µM
NMDA receptor; see also Kemp et al., 1988
  IC50: 169 µM
Kainate receptor; see also Kemp et al., 1988, unit inferred
  IC50: > 1000 µM

## CCOC(=O)c1cc(NC)c2c(Cl)cc(Cl)cc2n1 [ethyl 4-methylamino-5,7-dichloro-2-quinoline carboxylate]
[9]
  solubility in chloroform and other non-polar solvents: appreciably soluble in chloroform and other non-polar solvents
[4]; mice, intraperitoneal
  minimal effective dose: ≤ 100 mg/kg
  anticonvulsant activity (words): high anticonvulsant activity
[4]; Phase I Identification: mice, i.p., classes not defined in the patent
  CLASS: 1
[4]; mice, intraperitoneal, listed as ethyl 4-methylamino-5,7-dichloro-2-quinoline carboxylate
  anticonvulsant activity (words): most potent anticonvulsant
[4]; mice, intraperitoneal, listed as ethyl-4-methylamino-5,7-dichloro-2-quinoline carboxylate
  anticonvulsant activity (words): particularly effective anticonvulsant agent
[10]; 30 minutes, 30 mg/kg
  MES: 0/1
[10]; 30 minutes, 100 mg/kg
  MES: 0/3
[10]; 30 minutes, 300 mg/kg
  MES: 0/1
[10]; 4 hours, 30 mg/kg
  MES: 0/1
[10]; 4 hours, 100 mg/kg
  MES: 0/3
[10]; 4 hours, 300 mg/kg
  MES: 0/1
[10]; [16]
  minimal effective dose: 30 mg/kg
[1]
  NOAEL: 300 mg/kg
[11]; 30 mg/kg
  Sc MET repeated: toxic: 0/4
[11]; 100 mg/kg
  Sc MET repeated: toxic: 0/4
[11]; 300 mg/kg
  Sc MET repeated: toxic: 0/4
[5]
  [3H]glycine binding inhibition: poor binding inhibition
[2]; 30 minutes, 30 mg/kg
  Sc MET: 1/1
  Sc MET repeated: protected: 1/4
[2]; 30 minutes, 100 mg/kg
  Sc MET: 1/1
  Sc MET repeated: protected: 2/4
[2]; 30 minutes, 300 mg/kg
  Sc MET: 1/1
  Sc MET repeated: protected: 4/4
[2]; 4 hours, 30 mg/kg
  Sc MET: 0/1
[2]; 4 hours, 100 mg/kg
  Sc MET: 0/1
[2]; 4 hours, 300 mg/kg
  Sc MET: 0/1
[2]; [14]
  minimal effective dose: 30 mg/kg
[2]; [15]
  minimal effective dose: 30 mg/kg

## CCOC(=O)c1cc(O)c2c(F)cc(F)cc2n1 [5,7-di-F-kyn-2-ethyl ester]
[10]; [17]
  minimal effective dose: 300 mg/kg
[10]; [16]
  minimal effective dose: 300 mg/kg
[10]; mice, intraperitoneal
  MES activity: MES activity at this dose level
[1]
  NOAEL: 300 mg/kg
[2]
  (Maximum Ineffective) Intraperitoneal Dose, Met: 300 mg/kg

## C[C@]12N[C@H](Cc3ccccc31)c1ccccc12 [MK-801]
Anticonvulsant activity
  anticonvulsant activity (words, literature): demonstrate anticonvulsant activity

## O=C(O)c1cc2ccccc2[nH]1 [indole-2-carboxylic acid]
[12]
  activity at strychnine-sensitive sites: inactive

## CCOC(=O)c1cc2cc(F)ccc2[nH]1 [5-F-indole-2-ethyl ester, 5-fluoro-indole-2-ethyl carboxylate]
[10]; [17]
  minimal effective dose: 100 mg/kg
[10]; [16]
  minimal effective dose: 100 mg/kg
[1]
  NOAEL: 300 mg/kg
[2]; [14]
  minimal effective dose: 300 mg/kg
[2]; [15]
  minimal effective dose: 300 mg/kg

## O=C(O)c1cc2cc(F)ccc2[nH]1 [5-F-indole-2-COOH, 5-fluoro-indole-2-carboxylic acid]
[13]
  inhibition of potentiating action of glycine on NMDA current: inhibit competitively the potentiating action of glycine
[4]
  minimal effective dose: 100 mg/kg
[10]; read-out: Effective Intraperitoneal Dose, MES
  minimal effective dose: 100 mg/kg
[10]; read-out: dose active in MES test
  minimal effective dose: 100 mg/kg
[1]; Table 7, value in parentheses = maximum ineffective dose, read-out: (Maximum Ineffective) Intraperitoneal Dose, Rotorod
  NOAEL: 300 mg/kg
[5]
  [3H]glycine binding inhibition: most potent inhibitor of [^3 H]glycine binding in this group
[2]
  (Maximum Ineffective) Intraperitoneal Dose, Met: 300 mg/kg

## O=C(O)c1cc(O)c2ccccc2n1 [kynurenic acid, 4-hydroxy-2-quinolinecarboxylic acid]
Quisqualate receptor
  excitatory amino acid antagonist activity at quisqualate receptors: nonselective excitatory amino acid antagonist
NMDA receptor
  excitatory amino acid antagonist activity at NMDA receptors: nonselective excitatory amino acid antagonist
[12]
  activity at strychnine-sensitive sites: inactive
Kainate receptor
  excitatory amino acid antagonist activity at kainate receptors: nonselective excitatory amino acid antagonist
